Values after ≈ are worked out from the molar mass of the structure shown.
Columns and labels:
C. albicans 17546 = conditions: 17546, 48 h
C. albicans cgmcc 2.2086 [1] = experiment: Antifungal activity assay (broth microdilution, MIC/MFC); format: cell-based, Candida albicans; conditions: cgmcc 2.2086, 48 h
C. albicans 56452 = conditions: 56452, 48 h
[2] = test system: C. parapsilosis cgmcc 2.3989; experiment: Antifungal activity assay (broth microdilution, MIC/MFC); format: cell-based, Candida parapsilosis; conditions: cgmcc 2.3989, 48 h
C. albicans cgmcc 2.2086 [3] = experiment: Membrane potential assay, DiSC3(5); format: cell-based, Candida albicans; conditions: 0.5 × MIC
Text: The alteration of membrane potential in peptide-treated C. albicans was detected using the membrane potential-sensitive fluorescent probe, 3,3′-dipropylthiadicarbocyanine iodide [DiSC3(5)] (Sigma-Aldrich, Shanghai, China), as previously described ([Qi et al., 2010]). In brief, C. albicans cells in mid-logarithmic growth-phase were harvested and suspended to an OD600 of 0.05 with 5-mM 4-(2-hydroxyethyl)-1-piperazineethanesulfonic acid buffer (pH 7.4, containing 20-mM glucose). After the addition of 0.4-μM DiSC3(5), samples were incubated for 90 min in the dark to obtain a stable reduction in fluorescence, and then, potassium chloride (4 M) was added to the cell suspension to give a final concentration of 100 mM. Subsequently, 2 ml of cell suspension was added to a 1-cm quartz cuvette and mixed with peptides at different concentrations. The changes in fluorescence were recorded for 900 s with an F-4500 fluorescence spectrophotometer (Hitachi, Japan) at excitation and emission wavelengths of 622 and 670 nm, respectively.

[4] = test system: C. tropicalis cgmcc 2.1975; experiment: Antifungal activity assay (broth microdilution, MIC/MFC); format: cell-based, Candida tropicalis; conditions: cgmcc 2.1975, 48 h
C. albicans sp3876 = conditions: sp3876, 48 h
C. albicans sp3902 = conditions: sp3902, 48 h
C. albicans 58288 = conditions: 58288, 48 h
C. albicans strains = experiment: Geometric mean of MIC values against all tested C. albicans; format: cell-based, Candida albicans
C. albicans 56214 = conditions: 56214, 48 h
C. albicans sp3903 = conditions: sp3903, 48 h
C. albicans 14936 = conditions: 14936, 48 h
C. albicans sp3931 = conditions: sp3931, 48 h

SMILES: CC[C@H](C)[C@H](NC(=O)CN)C(=O)NCC(=O)N[C@@H](C)C(=O)N[C@H](C(=O)N[C@@H](CC(C)C)C(=O)N[C@@H](CCCCN)C(=O)N[C@H](C(=O)N[C@@H](CC(C)C)C(=O)N[C@H](C(=O)N[C@H](C(=O)NCC(=O)N[C@@H](CC(C)C)C(=O)N1CCC[C@H]1C(=O)N[C@@H](C)C(=O)N[C@@H](CC(C)C)C(=O)N[C@H](C(=O)N[C@@H](CO)C(=O)N[C@@H](Cc1c[nH]c2ccccc12)C(=O)N[C@H](C(=O)N[C@@H](CCCCN)C(=O)N[C@@H](CCCNC(=N)N)C(=O)N[C@@H](CCCCN)C(=O)N[C@@H](CCCNC(=N)N)C(=O)N[C@@H](CCC(N)=O)C(=O)N[C@@H](CCC(N)=O)C(N)=O)[C@@H](C)CC)[C@@H](C)CC)[C@@H](C)O)[C@@H](C)O)C(C)C)C(C)C [Melittin, reference compound]
- MFC (C. albicans 17546): 8 µM (≈ 22.8 µg/mL)
- MIC (C. albicans 17546; pH 7): 8 µM (≈ 22.8 µg/mL)
- MFC (C. albicans cgmcc 2.2086 [1]): 8 µM (≈ 22.8 µg/mL)
- MIC (C. albicans cgmcc 2.2086 [1]; pH 7): 4 µM (≈ 11.4 µg/mL)
- MFC (C. albicans 56452): 8 µM (≈ 22.8 µg/mL)
- MIC (C. albicans 56452; pH 7): 8 µM (≈ 22.8 µg/mL)
- MFC [2]: 2 µM (≈ 5.69 µg/mL)
- MIC ([2]; pH 7): 2 µM (≈ 5.69 µg/mL)
- cytoplasmic membrane depolarization, melittin against RF3 (in words) (C. albicans cgmcc 2.2086 [3]): stronger membrane depolarization
- MFC [4]: 8 µM (≈ 22.8 µg/mL)
- MIC ([4]; pH 7): 4 µM (≈ 11.4 µg/mL)
- MFC (C. albicans sp3876): 4 µM (≈ 11.4 µg/mL)
- MIC (C. albicans sp3876; pH 7): 4 µM (≈ 11.4 µg/mL)
- MFC (C. albicans sp3902): 2 µM (≈ 5.69 µg/mL)
- MIC (C. albicans sp3902; pH 7): 2 µM (≈ 5.69 µg/mL)
- MFC (C. albicans 58288): 4 µM (≈ 11.4 µg/mL)
- MIC (C. albicans 58288; pH 7): 4 µM (≈ 11.4 µg/mL)
- GM (C. albicans strains): 4.59 µM
- MFC (C. albicans 56214): 4 µM (≈ 11.4 µg/mL)
- MIC (C. albicans 56214; pH 7): 4 µM (≈ 11.4 µg/mL)
- MFC (C. albicans sp3903): 4 µM (≈ 11.4 µg/mL)
- MIC (C. albicans sp3903; pH 7): 4 µM (≈ 11.4 µg/mL)
- MFC (C. albicans 14936): 8 µM (≈ 22.8 µg/mL)
- MIC (C. albicans 14936; pH 7): 4 µM (≈ 11.4 µg/mL)
- MFC (C. albicans sp3931): 8 µM (≈ 22.8 µg/mL)
- MIC (C. albicans sp3931; pH 7): 8 µM (≈ 22.8 µg/mL)
